Data as given in patent US12559492B2, “BRAF degraders” (C4 Therapeutics, Inc., priority 2020, dated 2026).
Where two headings read alike, the source gives them in different places.

Molecular target: BRAF^V600E protein (Homo sapiens, UniProt P15056, V600E)
Assay: HiBiT cellular BRAF V600E degradation assay
Type: cell-based
Details: for DC50: A375.10 cells (HiBiT tag knocked in at N-terminal of BRAF V600E), concentration at which 50% of total cellular BRAF V600E is degraded; for Emax: read-out: HiBit 24 h Emax
[1] = A375.10 cells, 24 h incubation, Emax = amount of residual protein remaining in the cell after compound treatment

Chain of BRAF^V600E protein (P15056 whole entry V600E): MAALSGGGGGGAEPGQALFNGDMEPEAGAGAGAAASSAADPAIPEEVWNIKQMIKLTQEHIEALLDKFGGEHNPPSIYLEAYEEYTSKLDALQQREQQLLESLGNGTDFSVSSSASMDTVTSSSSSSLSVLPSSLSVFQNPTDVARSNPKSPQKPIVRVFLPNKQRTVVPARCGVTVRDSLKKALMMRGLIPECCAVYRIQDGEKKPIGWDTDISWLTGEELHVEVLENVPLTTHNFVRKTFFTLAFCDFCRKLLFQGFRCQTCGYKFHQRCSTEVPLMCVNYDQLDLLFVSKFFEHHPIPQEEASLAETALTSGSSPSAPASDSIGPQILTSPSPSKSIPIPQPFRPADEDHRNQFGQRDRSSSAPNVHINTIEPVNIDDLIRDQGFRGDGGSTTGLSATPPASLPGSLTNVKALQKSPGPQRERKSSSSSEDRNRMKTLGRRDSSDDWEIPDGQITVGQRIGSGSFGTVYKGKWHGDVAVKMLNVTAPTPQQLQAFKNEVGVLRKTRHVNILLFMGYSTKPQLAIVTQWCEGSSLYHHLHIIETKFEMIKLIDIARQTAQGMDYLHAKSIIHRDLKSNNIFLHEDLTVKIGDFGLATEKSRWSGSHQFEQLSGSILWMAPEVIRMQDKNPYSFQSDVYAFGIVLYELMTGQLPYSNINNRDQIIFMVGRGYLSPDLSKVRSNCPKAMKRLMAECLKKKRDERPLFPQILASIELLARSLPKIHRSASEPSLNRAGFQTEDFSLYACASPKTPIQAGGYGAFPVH

**Q.** For `CCN(C)S(=O)(=O)Nc1ccc(F)c(C(=O)c2c[nH]c3ncc(-c4cnc(N5CCCN(C(=O)CN6CCC(c7ccc(NC8CCC(=O)NC8=O)cc7)CC6)CC5)nc4)cc23)c1F` (stereo not drawn) [Example 63, 5-[2-[4-[2-[4-[4-[(2,6-dioxo-3-piperidyl)amino]phenyl]-1-piperidyl]acetyl]-1,4-diazepan-1-yl]pyrimidin-5-yl]-3-[3-[[ethyl(methyl)sulfamoyl]amino]-2,6-difluoro-benzoyl]-1H-pyrrolo[2,3-b]pyridine], which DC50 (24 h incubation) is on record?
**A.** 40.2 nM

**Q.** And the Emax [1]?
**A.** 11.8%

**Q.** For `CCN(C)S(=O)(=O)Nc1ccc(F)c(C(=O)c2c[nH]c3ncc(-c4cnc(N5CC6(CN(C(=O)CN7CCC(c8ccc(NC9CCC(=O)NC9=O)cc8)CC7)C6)C5)nc4)cc23)c1F` (stereo not drawn) [Example 64, 5-[2-[2-[2-[4-[4-[(2,6-dioxo-3-piperidyl)amino]phenyl]-1-piperidyl]acetyl]-2,6-diazaspiro[3.3]heptan-6-yl]pyrimidin-5-yl]-3-[3-[[ethyl(methyl)sulfamoyl]amino]-2,6-difluoro-benzoyl]-1H-pyrrolo[2,3-b]pyridine], which DC50 (24 h incubation) is on record?
**A.** 7.21 nM

**Q.** And the Emax [1]?
**A.** 9.33%

**Q.** Which DC50 (24 h incubation) does the source give for `CCN(C)S(=O)(=O)Nc1ccc(F)c(C(=O)c2c[nH]c3ncc(-c4cnc(N5CCN(C(=O)CN6CCC(c7ccc(NC8CCC(=O)NC8=O)cc7)CC6)CC5)nc4)c(C)c23)c1F` (stereo not drawn) [Example 65, 5-[2-[4-[2-[4-[4-[(2,6-dioxo-3-piperidyl)amino]phenyl]-1-piperidyl]acetyl]piperazin-1-yl]pyrimidin-5-yl]-3-[3-[[ethyl(methyl)sulfamoyl]amino]-2,6-difluoro-benzoyl]-4-methyl-1H-pyrrolo[2,3-b]pyridine] here?
**A.** 9.97 nM

**Q.** What about the Emax [1] of the same compound?
**A.** 3.79%

**Q.** For `CCN(C)S(=O)(=O)Nc1ccc(F)c(C(=O)c2c[nH]c3ncc(-c4cnc(N5CCN(C(=O)CN6CCC(c7ccc(NC8CCC(=O)NC8=O)cc7)CC6)CC5)nc4)c(F)c23)c1F` (stereo not drawn) [Example 66, 5-[2-[4-[2-[4-[4-[(2,6-dioxo-3-piperidyl)amino]phenyl]-1-piperidyl]acetyl]piperazin-1-yl]pyrimidin-5-yl]-3-[3-[[ethyl(methyl)sulfamoyl]amino]-2,6-difluoro-benzoyl]-4-fluoro-1H-pyrrolo[2,3-b]pyridine], which DC50 (24 h incubation) is on record?
**A.** 3.06 nM

**Q.** And the Emax [1]?
**A.** 8.1%

**Q.** What does the source list for `CCN(C)S(=O)(=O)Nc1ccc(F)c(C(=O)c2c[nH]c3ncc(-c4ccc(N5CCN(C(=O)CN6CCC(c7ccc(O[C@H]8CCC(=O)NC8=O)cc7)CC6)CC5)nc4)cc23)c1F` [Example 73, 5-[6-[4-[2-[4-[4-[[(3S)-2,6-dioxo-3-piperidyl]oxy]phenyl]-1-piperidyl]acetyl]piperazin-1-yl]-3-pyridyl]-3-[3-[[ethyl(methyl)sulfamoyl]amino]-2,6-difluoro-benzoyl]-1H-pyrrolo[2,3-b]pyridine]?
**A.** DC50 (24 h incubation): 12.3 nM; HiBit 24 h Emax [1]: 8.05%

**Q.** How did the DC50 (24 h incubation) turn out when `CCN(C)S(=O)(=O)Nc1ccc(F)c(C(=O)c2c[nH]c3ncc(-c4ccc(N5CCN(C(=O)CN6CCC(c7ccc(O[C@@H]8CCC(=O)NC8=O)cc7)CC6)CC5)nc4)cc23)c1F` [Example 74, 5-[6-[4-[2-[4-[4-[[(3R)-2,6-dioxo-3-piperidyl]oxy]phenyl]-1-piperidyl]acetyl]piperazin-1-yl]-3-pyridyl]-3-[3-[[ethyl(methyl)sulfamoyl]amino]-2,6-difluoro-benzoyl]-1H-pyrrolo[2,3-b]pyridine] was run?
**A.** 32.5 nM

**Q.** What about the “HiBit 24 h Emax” value [1] of the same compound?
**A.** 9.07%

**Q.** How did the DC50 (24 h incubation) turn out when `CCN(C)S(=O)(=O)Nc1ccc(F)c(C(=O)c2c[nH]c3ncc(-c4ccc(N5CCN(C(=O)CN6CCC(Nc7ccc8c(C9CCC(=O)NC9=O)nn(C)c8c7)CC6)CC5)nc4)cc23)c1F` (stereo not drawn) [Example 75, 3-(2,6-dioxo-3-piperidyl)-6-[[1-[2-[4-[5-[3-[3-[[ethyl(methyl)sulfamoyl]amino]-2,6-difluoro-benzoyl]-1H-pyrrolo[2,3-b]pyridin-5-yl]-2-pyridyl]piperazin-1-yl]-2-oxo-ethyl]-4-piperidyl]amino]-1-methyl-indazole] was run?
**A.** 6.26 nM

**Q.** And the Emax [1]?
**A.** 11.6%

**Q.** Which results are given for `CCN(C)S(=O)(=O)Nc1ccc(F)c(C(=O)c2c[nH]c3ncc(-c4ccc(N5CCN(C(=O)CC6(O)CCN(c7ccc(NC8CCC(=O)NC8=O)cc7)CC6)CC5)nc4)cc23)c1F` (stereo not drawn) [Example 76, 5-[6-[4-[2-[1-[4-[(2,6-dioxo-3-piperidyl)amino]phenyl]-4-hydroxy-4-piperidyl]acetyl]piperazin-1-yl]-3-pyridyl]-3-[3-[[ethyl(methyl)sulfamoyl]amino]-2,6-difluoro-benzoyl]-1H-pyrrolo[2,3-b]pyridine]?
**A.** DC50 (24 h incubation): 7.81 nM; Emax [1]: 14.2%

**Q.** For `CCN(C)S(=O)(=O)Nc1ccc(F)c(C(=O)c2c[nH]c3ncc(-c4ccc(N5CCN(C(=O)CC6(O)CCN(c7ccc(NC8CCC(=O)NC8=O)cn7)CC6)CC5)nc4)cc23)c1F` (stereo not drawn) [Example 78, 5-[6-[4-[2-[1-[5-[(2,6-dioxo-3-piperidyl)amino]-2-pyridyl]-4-hydroxy-4-piperidyl]acetyl]piperazin-1-yl]-3-pyridyl]-3-[3-[[ethyl(methyl)sulfamoyl]amino]-2,6-difluoro-benzoyl]-1H-pyrrolo[2,3-b]pyridine], which DC50 (24 h incubation) is on record?
**A.** 9.89 nM

**Q.** And the Emax [1]?
**A.** 23.3%

**Q.** What does the source list for `CCN(C)S(=O)(=O)Nc1ccc(F)c(C(=O)c2c[nH]c3ncc(-c4ccc(N5CCN(C(=O)CC6(O)CCN(c7ccc(NC8CCC(=O)NC8=O)cc7F)CC6)CC5)nc4)cc23)c1F` (stereo not drawn) [Example 79, 5-[6-[4-[2-[1-[4-[(2,6-dioxo-3-piperidyl)amino]-2-fluoro-phenyl]-4-hydroxy-4-piperidyl]acetyl]piperazin-1-yl]-3-pyridyl]-3-[3-[[ethyl(methyl)sulfamoyl]amino]-2,6-difluoro-benzoyl]-1H-pyrrolo[2,3-b]pyridine]?
**A.** DC50 (24 h incubation): 2.13 nM; Emax [1]: 9.51%

**Q.** `CCN(C)S(=O)(=O)Nc1ccc(F)c(C(=O)c2c[nH]c3ncc(-c4ccc(N5CCN(C(=O)CC6(O)CCN(c7ncc(NC8CCC(=O)NC8=O)cc7F)CC6)CC5)nc4)cc23)c1F` (stereo not drawn) [Example 80, 5-[6-[4-[2-[1-[5-[(2,6-dioxo-3-piperidyl)amino]-3-fluoro-2-pyridyl]-4-hydroxy-4-piperidyl]acetyl]piperazin-1-yl]-3-pyridyl]-3-[3-[[ethyl(methyl)sulfamoyl]amino]-2,6-difluoro-benzoyl]-1H-pyrrolo[2,3-b]pyridine] was tested. Which DC50 (24 h incubation) did it give?
**A.** 2.97 nM

**Q.** What about the Emax [1] of the same compound?
**A.** 9.93%

**Q.** `CCN(C)S(=O)(=O)Nc1ccc(F)c(C(=O)c2c[nH]c3ncc(-c4cnc(N5CCN(C(=O)CN6CCC(c7ccc(NC8CCC(=O)NC8=O)cc7)CC6)CC5)c(C#N)c4)cc23)c1F` (stereo not drawn) [Example 82, 5-[5-cyano-6-[4-[2-[4-[4-[(2,6-dioxo-3-piperidyl)amino]phenyl]-1-piperidyl]acetyl]piperazin-1-yl]-3-pyridyl]-3-[3-[[ethyl(methyl)sulfamoyl]amino]-2,6-difluoro-benzoyl]-1H-pyrrolo[2,3-b]pyridine] was tested. Which DC50 (24 h incubation) did it give?
**A.** 7.57 nM

**Q.** What about the Emax of the same compound?
**A.** 7.6%

**Q.** Which results are given for `CCN(C)S(=O)(=O)Nc1ccc(F)c(C(=O)c2c[nH]c3ncc(-c4ccc(N5CCN(C(=O)CN6CCC(c7ccc(NC8CCC(=O)NC8=O)cc7)CC6)CC5)cc4)cc23)c1F` (stereo not drawn) [Example 84, 5-[4-[4-[2-[4-[4-[(2,6-dioxo-3-piperidyl)amino]phenyl]-1-piperidyl]acetyl]piperazin-1-yl]phenyl]-3-[3-[[ethyl(methyl)sulfamoyl]amino]-2,6-difluoro-benzoyl]-1H-pyrrolo[2,3-b]pyridine]?
**A.** DC50 (24 h incubation): 3.14 nM; HiBit 24 h Emax [1]: 9.62%

**Q.** How did the DC50 (24 h incubation) turn out when `CCN(C)S(=O)(=O)Nc1ccc(F)c(C(=O)c2c[nH]c3ncc(-c4ccc(N5CCN(C(=O)CC6(O)CCN(c7ccc(NC8CCC(=O)NC8=O)cc7)CC6)CC5)cc4)cc23)c1F` (stereo not drawn) [Example 86, 5-[4-[4-[2-[1-[4-[(2,6-dioxo-3-piperidyl)amino]phenyl]-4-hydroxy-4-piperidyl]acetyl]piperazin-1-yl]phenyl]-3-[3-[[ethyl(methyl)sulfamoyl]amino]-2,6-difluoro-benzoyl]-1H-pyrrolo[2,3-b]pyridine] was run?
**A.** 4.29 nM

**Q.** What about the Emax [1] of the same compound?
**A.** 11.8%

**Q.** How did the DC50 (24 h incubation) turn out when `CCN(C)S(=O)(=O)Nc1ccc(F)c(C(=O)c2c[nH]c3ncc(-c4ccc(N5CCN(C(=O)CC6(O)CCN(c7ccc(NC8CCC(=O)NC8=O)cc7F)C6)CC5)cc4)cc23)c1F` (stereo not drawn) [Example 87, 5-[4-[4-[2-[1-[4-[(2,6-dioxo-3-piperidyl)amino]-2-fluoro-phenyl]-3-hydroxy-pyrrolidin-3-yl]acetyl]piperazin-1-yl]phenyl]-3-[3-[[ethyl(methyl)sulfamoyl]amino]-2,6-difluoro-benzoyl]-1H-pyrrolo[2,3-b]pyridine] was run?
**A.** 13.3 nM

**Q.** And the Emax [1]?
**A.** 9.64%

**Q.** How did the DC50 (24 h incubation) turn out when `CCN(C)S(=O)(=O)Nc1ccc(F)c(C(=O)c2c[nH]c3ncc(-c4ccc(N5CCN(C(=O)CC6(O)CCN(c7ccc(NC8CCC(=O)NC8=O)cn7)CC6)CC5)cc4)cc23)c1F` (stereo not drawn) [Example 88, 5-[4-[4-[2-[1-[5-[(2,6-dioxo-3-piperidyl)amino]-2-pyridyl]-4-hydroxy-4-piperidyl]acetyl]piperazin-1-yl]phenyl]-3-[3-[[ethyl(methyl)sulfamoyl]amino]-2,6-difluoro-benzoyl]-1H-pyrrolo[2,3-b]pyridine] was run?
**A.** 15.7 nM

**Q.** What about the Emax [1] of the same compound?
**A.** 22.2%

**Q.** `CCN(C)S(=O)(=O)Nc1ccc(F)c(C(=O)c2c[nH]c3ncc(-c4ccc(N5CCN(C(=O)CC6(O)CCN(c7ccc(NC8CCC(=O)NC8=O)cc7F)CC6)CC5)cc4)cc23)c1F` (stereo not drawn) [Example 89, 5-[4-[4-[2-[1-[4-[(2,6-dioxo-3-piperidyl)amino]-2-fluoro-phenyl]-4-hydroxy-4-piperidyl]acetyl]piperazin-1-yl]phenyl]-3-[3-[[ethyl(methyl)sulfamoyl]amino]-2,6-difluoro-benzoyl]-1H-pyrrolo[2,3-b]pyridine] was tested. Which DC50 (24 h incubation) did it give?
**A.** 1.4 nM

**Q.** And the Emax [1]?
**A.** 8.6%

**Q.** Which DC50 (24 h incubation) does the source give for `CCN(C)S(=O)(=O)Nc1ccc(F)c(C(=O)c2c[nH]c3ncc(-c4ccc(N5CCN(C(=O)CC6(O)CCN(c7ncc(NC8CCC(=O)NC8=O)cc7F)CC6)CC5)cc4)cc23)c1F` (stereo not drawn) [Example 90, 5-[4-[4-[2-[1-[5-[(2,6-dioxo-3-piperidyl)amino]-3-fluoro-2-pyridyl]-4-hydroxy-4-piperidyl]acetyl]piperazin-1-yl]phenyl]-3-[3-[[ethyl(methyl)sulfamoyl]amino]-2,6-difluoro-benzoyl]-1H-pyrrolo[2,3-b]pyridine] here?
**A.** 2.13 nM

**Q.** And the Emax [1]?
**A.** 7.44%
